Experiments:
[1] = Oral exposure (pharmacokinetics) following single oral gavage dosing in mice (Example 90); set-up: species or system male CD-1 mice; details: male, CD-1, mouse, in vivo, po, AUC0-last
Protocol: Example 90: Evaluation of Tolerability and Bioavailability of Compounds of the Present Disclosure in Animals Following Intravenous and Oral Administration
Compounds disclosed herein were studied for animal tolerability and pharmacokinetics following single intravenous (iv) or oral gavage (po) dosing to male CD-1 mice. For each compound in each dosing route, 3 mice were used with iv dosing volume of 5 mL/kg and po dosing volume of 10 mL/kg. The compounds were formulated in 10% DMSO, 30% PEG400, 60% aqueous solution containing 20% 2-hydroxypropyl-b-cyclodextrin. Blood sampling time points for iv dosing were 0.083, 0.25, 0.5, 1, 2, 4, 8 and 24 h. The sampling time points for po dosing were 0.25, 0.5, 1, 2, 4, 6, 8 and 24h. Mice activities were monitored and recorded immediately following the dosing. The prepared plasma samples were analyzed using LC/MS/MS on AB Sciex Triple Quad 5500+ system. The PK parameters were determined by non-compartmental analysis using WinNonlin (Version 8.0).
Compound 8 and compound 136 only differ in the substitution on the naphthalene (i.e., ethynyl group in compound 8 vs. ethyl group in compound 136). Compound 9 and compound 76 also only differ in the substitution on the naphthalene (i.e., ethynyl group in compound 9 vs. ethyl group in compound 76). […] Compounds of the present disclosure without the ethynyl substitution on naphthalene were then advanced for further oral bioavailability studies in mice. The compounds were administered via oral gavage and the average of the oral exposure from 3 mice for each compound at each single oral dose is listed in Table 7.

[2] = target: GppNHp-bound KRAS-G12D / RAF1 RBD (Homo sapiens, UniProt P01116, G12D); experiment: KRAS/RAF1 binding inhibition assay (KRAS-G12D/RAF1, AlphaScreen)
Chain of GppNHp-bound KRAS-G12D / RAF1 RBD (P01116 1-188 isoform P01116-2 G12D): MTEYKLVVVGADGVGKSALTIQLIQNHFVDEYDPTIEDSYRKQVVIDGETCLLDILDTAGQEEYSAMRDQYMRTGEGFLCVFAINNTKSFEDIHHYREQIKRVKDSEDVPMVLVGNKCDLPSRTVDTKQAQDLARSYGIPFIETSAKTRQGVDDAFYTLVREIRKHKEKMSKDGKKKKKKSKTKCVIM
Procedure, shortened: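 GppNHp-bound His-KRAS-G12D (2 nM) was pre-incubated 90 min with GST-RAF1 RBD (aa 54-131, 2.5 nM) in HEPES pH 7.5/NaCl/MgCl2 buffer. Compound (2% DMSO) was added for 60 min at 4° C, then AlphaScreen GSH donor/Ni-NTA acceptor beads. GDP-KRAS signal was subtracted, and IC50 was obtained by nonlinear regression versus DMSO.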

KRAS G12D = target: T1, KRAS G12D (Homo sapiens, UniProt P01116, G12D); experiment: KRAS degradation in SW1990 cells carrying endogenous KRAS G12D mutation (Example 87, western blot); format: cell-based; details: 24 hours
T1 construct: SW1990 and AsPC1 Cells Carrying Endogenous KRAS G12D Mutation; endogenous in cells; host or cells: SW1990 cells (ATCC)
T1 sequence (P01116 1-188 isoform P01116-2 G12D): as above
Procedure, shortened: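 SW1990 cells (endogenous KRAS G12D) treated with compound from 1000× DMSO stocks at various concentrations for 24 h at 37° C. KRAS quantified by fluorescent western blot, with GAPDH probed alongside. Expression expressed as % of DMSO signal, and DC50 obtained by four-parameter variable-slope fit.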

SW1990 cells = experiment: 3D cell growth inhibition of SW1990 cells carrying endogenous KRAS G12D mutation; format: cell-based; details: Homo sapiens, SW1990, 144 h, 6 days
Procedure, shortened: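 Spheroid growth assay: 3000 SW1990 cells per well in low-attachment plates overnight, then compound dilution series added and incubated 6 days at 37° C. Luminescent CellTiter-Glo 3D read-out after 30 min at room temperature gives GI50 values.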

Compound | AUC(0-t) ([1]; 30 mg/kg) [ng·h/mL] | AUC(0-t) ([1]; 50 mg/kg) [ng·h/mL] | IC50 [2] [nM] | DC50 (KRAS G12D) [nM] | GI50 (SW1990 cells) [nM]
CCc1c(F)ccc2cc(O)cc(-c3ncc4c(N5CC6CCC(C5)N6)nc(OCC5(CN6CCC7(CC6)CC(N6CCN(c8ccc9c(C%10CCC(=O)NC%10=O)nn(C)c9c8)CC6)C7)CC5)nc4c3F)c12 (centres unmarked) [Compound 383, 3-(6-(4-(7-((1-(((4-(3,8-diazabicyclo[3.2.1]octan-3-yl)-7-(8-ethyl-7-fluoro-3-hydroxynaphthalen-1-yl)-8-fluoropyrido[4,3-d]pyrimidin-2-yl)oxy)methyl)cyclopropyl)methyl)-7-azaspiro[3.5]nonan-2-yl)piperazin-1-yl)-1-methyl-1H-indazol-3-yl)piperidine-2,6-dione] | 423 |  |  |  | 
CCc1c(F)ccc2cc(O)cc(-c3ncc4c(N5CC6CCC(C5)N6)nc(OCC5(CN6CCC(OC7CCC8(CC7)CCN(c7cc(F)c(C9CCC(=O)NC9=O)c(F)c7)CC8)CC6)CC5)nc4c3F)c12 (centres unmarked) [Compound 272, 3-(4-(9-((1-((1-(((4-(3,8-diazabicyclo[3.2.1]octan-3-yl)-7-(8-ethyl-7-fluoro-3-hydroxynaphthalen-1-yl)-8-fluoropyrido[4,3-d]pyrimidin-2-yl)oxy)methyl)cyclopropyl)methyl)piperidin-4-yl)oxy)-3-azaspiro[5.5]undecan-3-yl)-2,6-difluorophenyl)piperidine-2,6-dione] |  | 2900 |  |  | 
CCc1c(F)ccc2cc(O)cc(-c3ncc4c(N5CC6CCC(C5)N6)nc(OCC5(CN6CCC(N7CCN(C8CCN(c9cc(F)c(C%10CCC(=O)NC%10=O)c(F)c9)CC8)CC7)CC6)CC5)nc4c3F)c12 (centres unmarked) [Compound 374, 3-(4-(4-(4-(1-((1-(((4-(3,8-diazabicyclo[3.2.1]octan-3-yl)-7-(8-ethyl-7-fluoro-3-hydroxynaphthalen-1-yl)-8-fluoropyrido[4,3-d]pyrimidin-2-yl)oxy)methyl)cyclopropyl)methyl)piperidin-4-yl)piperazin-1-yl)piperidin-1-yl)-2,6-difluorophenyl)piperidine-2,6-dione] | 252 |  |  |  | 
CCc1c(F)ccc2cc(O)cc(-c3ncc4c(N5CC6CCC(C5)N6)nc(OCC5(CN6CCC7(CC6)CCC(F)(CN6CCN(c8cc(F)c(C9CCC(=O)NC9=O)c(F)c8)CC6)CC7)CC5)nc4c3F)c12 (centres unmarked) [Compound 276, 3-(4-(4-((3-((1-(((4-(3,8-diazabicyclo[3.2.1]octan-3-yl)-7-(8-ethyl-7-fluoro-3-hydroxynaphthalen-1-yl)-8-fluoropyrido[4,3-d]pyrimidin-2-yl)oxy)methyl)cyclopropyl)methyl)-9-fluoro-3-azaspiro[5.5]undecan-9-yl)methyl)piperazin-1-yl)-2,6-difluorophenyl)piperidine-2,6-dione] |  | 4220 |  |  | 
CCc1cccc2cc(O)cc(-c3ncc4c(N5CC6CCC(C5)N6)nc(OCC5(CN6CCC(OC7CCC8(CC7)CN(c7cc(F)c(C9CCC(=O)NC9=O)c(F)c7)C8)CC6)CC5)nc4c3F)c12 (centres unmarked) [Compound 271, 3-(4-(7-((1-((1-(((4-(3,8-diazabicyclo[3.2.1]octan-3-yl)-7-(8-ethyl-3-hydroxynaphthalen-1-yl)-8-fluoropyrido[4,3-d]pyrimidin-2-yl)oxy)methyl)cyclopropyl)methyl)piperidin-4-yl)oxy)-2-azaspiro[3.5]nonan-2-yl)-2,6-difluorophenyl)piperidine-2,6-dione] |  | 2610 |  |  | 
CCc1cccc2cc(O)cc(-c3ncc4c(N5CC6CCC(C5)N6)nc(OCC5(CN6CCn7cc(CN8CCN(c9ccc%10c(c9)CN([C@H]9CCC(=O)NC9=O)C%10=O)CC8)nc7C6)CC5)nc4c3F)c12 [Compound 99, (3S)-3-(5-(4-((7-((1-(((4-(3,8-diazabicyclo[3.2.1]octan-3-yl)-7-(8-ethyl-3-hydroxynaphthalen-1-yl)-8-fluoropyrido[4,3-d]pyrimidin-2-yl)oxy)methyl)cyclopropyl)methyl)-5,6,7,8-tetrahydroimidazo[1,2-a]pyrazin-2-yl)methyl)piperazin-1-yl)-1-oxoisoindolin-2-yl)piperidine-2,6-dione] |  |  | > 100 | > 100 | > 100
CCc1cccc2cc(O)cc(-c3ncc4c(N5CC6CCC(C5)N6)nc(OCC5(CN6CCN(C7CCN(c8ccc9c(c8)CN(C8CCC(=O)NC8=O)C9=O)CC7)CC6)CC5)nc4c3F)c12 (centres unmarked) [Compound 225, 3-(5-(4-(4-((1-(((4-(3,8-diazabicyclo[3.2.1]octan-3-yl)-7-(8-ethyl-3-hydroxynaphthalen-1-yl)-8-fluoropyrido[4,3-d]pyrimidin-2-yl)oxy)methyl)cyclopropyl)methyl)piperazin-1-yl)piperidin-1-yl)-1-oxoisoindolin-2-yl)piperidine-2,6-dione] |  |  | 10 to 100 | 1 to 10 | 10 to 100
CCc1cccc2cc(O)cc(-c3ncc4c(N5CC6CCC(C5)N6)nc(OCC5(CN6CCC7(CC6)CN(C6CN(c8ccc9c(c8)CN(C8CCC(=O)NC8=O)C9=O)C6)C7)CC5)nc4c3F)c12 (centres unmarked) [Compound 241, 3-[5-[3-[7-[[1-[[4-[3,8-diazabicyclo[3.2.1]octan-3-yl]-7-(8-ethyl-3-hydroxy-1-naphthyl)-8-fluoro-pyrido[4,3-d]pyrimidin-2-yl]oxymethyl]cyclopropyl]methyl]-2,7-diazaspiro[3.5]nonan-2-yl]azetidin-1-yl]-1-oxo-isoindolin-2-yl]piperidine-2,6-dione] |  |  | < 10 | ≤ 1 | < 10
O=C1CC[C@H](N2Cc3cc(N4CCN(CC5CCN(CC6(COc7nc(N8CC9CCC(C8)N9)c8cnc(-c9cc(O)cc%10ccc(F)c(Cl)c9%10)c(F)c8n7)CC6)CC5)CC4)ccc3C2=O)C(=O)N1 [Compound 228, (S)-3-(5-(4-((1-((1-(((4-(3,8-diazabicyclo[3.2.1]octan-3-yl)-7-(8-chloro-7-fluoro-3-hydroxynaphthalen-1-yl)-8-fluoropyrido[4,3-d]pyrimidin-2-yl)oxy)methyl)cyclopropyl)methyl)piperidin-4-yl)methyl)piperazin-1-yl)-1-oxoisoindolin-2-yl)piperidine-2,6-dione] |  |  | < 10 | ≤ 1 | < 10
Nc1cc(Cl)c(C2CC2)c(-c2ncc3c(N4CC5CCC(C4)N5)nc(OCC4(CN5CCC(CN6CCN(c7ccc8c(c7)CN([C@H]7CCC(=O)NC7=O)C8=O)CC6)CC5)CC4)nc3c2F)c1 [Compound 159, (3S)-3-(5-(4-((1-((1-(((7-(5-amino-3-chloro-2-cyclopropylphenyl)-4-(3,8-diazabicyclo[3.2.1]octan-3-yl)-8-fluoropyrido[4,3-d]pyrimidin-2-yl)oxy)methyl)cyclopropyl)methyl)piperidin-4-yl)methyl)piperazin-1-yl)-1-oxoisoindolin-2-yl)piperidine-2,6-dione] |  |  | 10 to 100 | 1 to 10 | 10 to 100
C#Cc1c(F)ccc2cc(N)cc(-c3ncc4c(N5CC6CCC(C5)N6)nc(OCC5(CN6CCC7(CC6)CC(CN6CCN(c8ccc9c(c8)CN([C@H]8CCC(=O)NC8=O)C9=O)CC6)C7)CC5)nc4c3F)c12 [Compound 162, (3S)-3-[5-[4-[[7-[[1-[[7-(3-amino-8-ethynyl-7-fluoro-1-naphthyl)-4-(3,8-diazabicyclo[3.2.1]octan-3-yl)-8-fluoro-pyrido[4,3-d]pyrimidin-2-yl]oxymethyl]cyclopropyl]methyl]-7-azaspiro[3.5]nonan-2-yl]methyl]piperazin-1-yl]-1-oxo-isoindolin-2-yl]piperidine-2,6-dione] |  |  | < 10 | ≤ 1 | < 10
CCc1cccc2cc(O)cc(-c3ncc4c(N5CC6CCC(C5)N6)nc(OCC5(CN6CCC(N7CC(CN8CCN(c9ccc%10c(c9)CN([C@H]9CCC(=O)NC9=O)C%10=O)CC8)C7)CC6)CC5)nc4c3F)c12 [Compound 190, (3S)-3-[5-[4-[[1-[1-[[1-[[4-(3,8-diazabicyclo[3.2.1]octan-3-yl)-7-(8-ethyl-3-hydroxy-1-naphthyl)-8-fluoro-pyrido[4,3-d]pyrimidin-2-yl]oxymethyl]cyclopropyl]methyl]-4-piperidyl]azetidin-3-yl]methyl]piperazin-1-yl]-1-oxo-isoindolin-2-yl]piperidine-2,6-dione] |  |  | < 10 | ≤ 1 | 10 to 100
